One may read the pEC50 as the EC50 on a negative log10 scale, so that one unit is a factor of ten.

This assay concerns the target REV-ERBα LBD (Homo sapiens, UniProt P20393, DEL324-422). Kind of assay: biochemical. The conditions noted are these: FRET assay; 6xHistag-REV-ERBα LBD with FITC-labeled SMRT corepressor peptide; read-out: REVERBα (Agonism of REV-ERBα, EC50). As to the method: TR-FRET corepressor interaction assay. The time-resolved fluorescence resonance energy transfer (TR-FRET) assay was performed in black low-volume 384-well plates (Greiner). Each well contained 4 nM 6×Histag-REV-ERBα LBD (human; residues 281-614 A324-422) or 6×Histag-REV-ERBα LBD (human; residues 381-579) protein expressed in and purified from Escherichia coli using nickel affinity and size exclusion chromatography; 1 nM LanthaScreen Elite Tb-anti-HIS Antibody (Thermo Fisher Scientific); and 400 nM FITC-labeled peptide derived from the SMRT corepressor ([…]) containing a N-terminal FITC label with a six-carbon linker (Ahx) and an amidated C-terminus for stability (synthesized by LifeTein) in TR-FRET buffer (20 mM potassium phosphate, pH 7.4, 50 mM potassium chloride, 1 mM dithiothreitol, and 0.005% Tween-20). Ligand stocks were prepared via serial dilution in DMSO, added to wells in triplicate, and plates were incubated at 4° C. for 2 h and read using a BioTek Synergy Neo multimode plate reader. The Tb donor was excited at 340 nm; its fluorescence emission was monitored at 495 nm, and the acceptor FITC emission was measured at 520 nm; and the TR-FRET ratio was calculated as the signal at 520 nm divided by the signal at 495 nm. Data were plotted using GraphPad Prism as TR-FRET ratio vs. ligand concentration and fit to sigmoidal dose response curve equation.
Exemplary compounds of the present disclosure were assayed as described above to assess agonism of REV-ERBα. Results of the FRET assay are shown in Table 2 below (A: EC50<100 nM; B: EC50 100 nM-1000 nM; C: EC50>1000 nM; NT: not tested).

pEC50: −log10 of the molar value.

Chain of REV-ERBα LBD (P20393 with tags, fused parts or gaps DEL324-422): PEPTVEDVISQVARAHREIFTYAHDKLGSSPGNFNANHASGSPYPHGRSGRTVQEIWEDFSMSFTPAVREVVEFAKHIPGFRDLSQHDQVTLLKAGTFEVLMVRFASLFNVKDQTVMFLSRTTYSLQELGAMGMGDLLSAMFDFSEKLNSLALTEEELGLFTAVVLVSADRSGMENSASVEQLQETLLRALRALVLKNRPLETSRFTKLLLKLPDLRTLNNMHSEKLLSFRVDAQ
Chain of REV-ERBα LBD (Q9Y618 2335-2356 partner limits assumed): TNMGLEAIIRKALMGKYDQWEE

Consider `CC(NS(=O)(=O)C1CC1)c1cn(CC(C)(C)C)c2cc(-c3ncccc3C(F)(F)F)c(F)cc12` (single isomer, unassigned) [Compound 17, (R or S)—N-(1-(5-fluoro-1-neopentyl-6-(3-(trifluoromethyl)pyridine-2-yl)-1H-indol-3-yl)ethyl)cyclopropane sulfonamide], for which the pEC50 was 6.00 to 7.00.

Take `CC(NS(=O)(=O)C1CC1)c1cn(CC(C)(C)C)c2cc(-c3ncccc3C(F)(F)F)c(F)cc12` (single isomer, unassigned) [Compound 18, (S or R)—N-(1-(5-fluoro-1-neopentyl-6-(3-(trifluoromethyl)pyridine-2-yl)-1H-indol-3-yl)ethyl)cyclopropane sulfonamide]: the pEC50 was over 7.00.

Consider `CC(NS(=O)(=O)C1CC1)c1cn(CC(C)(C)C)c2cc(-c3ncccc3C#N)c(F)cc12` (single isomer, unassigned) [Compound 19, (R or S)—N-(1-(6-(3-cyanopyridin-2-yl)-5-fluoro-1-neopentyl-1H-indol-3-yl)ethyl)cyclopropanesulfonamide], for which the pEC50 was over 7.00.

As for `CC(NS(=O)(=O)C1CC1)c1cn(CC(C)(C)C)c2cc(-c3ncccc3C#N)c(F)cc12` (single isomer, unassigned) [Compound 20, (S or R)—N-(1-(6-(3-cyanopyridin-2-yl)-5-fluoro-1-neopentyl-1H-indol-3-yl)ethyl)cyclopropanesulfonamide], the pEC50 is 6.00 to 7.00.

`CC(NS(=O)(=O)C1CC1)c1cn(CC(C)(C)C)c2cc(C3CCOCC3)ccc12` (single isomer, unassigned) [Compound 23, (R or S) N-(1-(1-neopentyl-6-(tetrahydro-2H-pyran-4-yl)-1H-indol-3-yl)ethyl)cyclopropanesulfonamide]: the pEC50 is over 7.00.

For the compound `CC(NS(=O)(=O)C1CC1)c1cn(CC(C)(C)C)c2cc(C3CCOCC3)ccc12` (single isomer, unassigned) [Compound 24, (S or R) N-(1-(1-neopentyl-6-(tetrahydro-2H-pyran-4-yl)-1H-indol-3-yl)ethyl)cyclopropanesulfonamide], the pEC50 is 6.00 to 7.00.

As for `CC(NS(=O)(=O)C1CC1)c1cn(CC(C)(C)C)c2cc(-c3c(F)cccc3C#N)ccc12` (single isomer, unassigned) [Compound 26, (R or S) N-(1-(6-(2-cyano-6-fluorophenyl)-1-neopentyl-1H-indol-3-yl)ethyl)cyclopropanesulfonamide], the pEC50 is 6.00 to 7.00.

`CC(NS(=O)(=O)C1CC1)c1cn(CC(C)(C)C)c2cc(-c3c(F)cccc3C#N)ccc12` (single isomer, unassigned) [Compound 27, (S or R) N-[(1R)-1-[6-(2-cyano-6-fluoro-phenyl)-1-(2,2-dimethylpropyl)indol-3-yl]ethyl]cyclo]: the pEC50 is over 7.00.

In the case of `CC(NS(=O)(=O)C1CC1)c1cn(CC(C)(C)C)c2cc(-c3cccnc3C(F)(F)F)c(F)cc12` (single isomer, unassigned) [Compound 28, N-[1-[1-(2,2-dimethylpropyl)-5-fluoro-6-[2-(trifluoromethyl)-3-pyridyl]indol-3-yl]ethyl]cyclopropanesulfonamide], the pEC50 was over 7.00.

Take `CC(NS(=O)(=O)C1CC1)c1cn(CC(C)(C)C)c2cc(-c3cccnc3C(F)(F)F)c(F)cc12` (single isomer, unassigned) [Compound 29, (S or R) N-[1-[1-(2,2-dimethylpropyl)-5-fluoro-6-[2-(trifluoromethyl)-3-pyridyl]indol-3-yl]ethyl]cyclopropanesulfonamide]: the pEC50 is 6.00 to 7.00.

Consider `CC(NS(=O)(=O)C1CC1)c1cn(CC(C)(C)C)c2cc(-c3cnccc3C#N)c(F)cc12` (single isomer, unassigned) [Compound 32, (R or S) N-(1-(6-(4-cyanopyridin-3-yl)-5-fluoro-1-neopentyl-1H-indol-3-yl)ethyl)cyclopropanesulfonamide], for which the pEC50 is over 7.00.

For `CC(NS(=O)(=O)C1CC1)c1cn(CC(C)(C)C)c2cc(-c3cnccc3C#N)c(F)cc12` (single isomer, unassigned) [Compound 33, (S or R) N-(1-(6-(4-cyanopyridin-3-yl)-5-fluoro-1-neopentyl-1H-indol-3-yl)ethyl)cyclopropanesulfonamide], the pEC50 was 6.00 to 7.00.

In the case of `CC(C)(C)Cn1cc([C@H](NS(=O)(=O)C2CC2)C(F)(F)F)c2ccc(-c3ccccc3C#N)nc21` [Compound 1, (S)—N-(1-(6-(2-cyanophenyl)-1-neopentyl-1H-pyrrolo[2,3-b]pyridin-3-yl)-2,2,2-trifluoroethyl)cyclopropanesulfonamide], the pEC50 is 6.00 to 7.00.

For `CC(C)(C)Cn1cc([C@H](NS(=O)(=O)C2CC2)C(F)(F)F)c2ccc(-c3cc(F)ccc3C#N)cc21` [Compound 2, (S)—N-(1-(6-(2-cyano-5-fluorophenyl)-1-neopentyl-1H-indol-3-yl)-2,2,2-trifluoroethyl)cyclopropanesulfonamide], the pEC50 was 6.00 to 7.00.

For the compound `CC(C)(C)Cn1cc([C@H](NS(=O)(=O)C2CC2)C(F)(F)F)c2ccc(-c3cc(F)ccc3C(F)(F)F)cc21` [Compound 3, (S)—N-(2,2,2-trifluoro-1-(6-(5-fluoro-2-(trifluoromethyl)phenyl)-1-neopentyl-1H-indol-3-yl)ethyl)cyclopropanesulfonamide], the pEC50 is over 7.00.

For the compound `CC(C)(C)Cn1cc([C@H](NS(=O)(=O)C2CC2)C(F)F)c2ccc(-c3ccc(F)cc3C(F)(F)F)nc21` [Compound 4, (S)—N-(2,2-difluoro-1-(6-(4-fluoro-2-(trifluoromethyl)phenyl)-1-neopentyl-1H-pyrrolo[2,3-b]pyridin-3-yl)ethyl)cyclopropanesulfonamide], the pEC50 was over 7.00.

Regarding `CC(C)(C)Cn1cc([C@H](NS(=O)(=O)C2CC2)C(F)(F)F)c2cc(F)c(-c3ccccc3OC(F)(F)F)cc21` [Compound 5, (S)—N-(2,2,2-trifluoro-1-(5-fluoro-1-neopentyl-6-(2-(trifluoromethoxy)phenyl)-H-indol-3-yl)ethyl)cyclopropanesulfonamide], the pEC50 is over 7.00.

In the case of `COc1cccc(C#N)c1-c1ccc2c([C@H](NS(=O)(=O)C3CCC3)C(F)(F)F)cn(CC(C)(C)C)c2c1` [Compound 6, (S)—N-(1-(6-(2-cyano-6-methoxyphenyl)-1-neopentyl-1H-indol-3-yl)-2,2,2-trifluoroethyl)cyclobutanesulfonamide], the pEC50 was 6.00 to 7.00.

Take `COc1cccc(C#N)c1-c1ccc2c([C@H](NS(=O)(=O)C3CC3)C(F)(F)F)cn(CC(C)(C)C)c2c1` [Compound 7, (S)—N-(1-(6-(2-cyano-6-methoxyphenyl)-1-neopentyl-1H-indol-3-yl)-2,2,2-trifluoroethyl)cyclopropanesulfonamide]: the pEC50 is 6.00 to 7.00.

`CC(C)(C)Cn1cc([C@H](NS(=O)(=O)C2CC2)C(F)(F)F)c2cc(F)c(-c3cccnc3C(F)(F)F)cc21` [Compound 8, (S)—N-(2,2,2-trifluoro-1-(5-fluoro-1-neopentyl-6-(2-(trifluoromethyl)pyridin-3-yl)-1H-indol-3-yl)ethyl)cyclopropanesulfonamide]: the pEC50 was 6.00 to 7.00.

With `CC(C)(C)Cn1cc([C@H](NS(=O)(=O)C2CC2)C(F)(F)F)c2cc(F)c(-c3ncccc3C(F)(F)F)cc21` [Compound 9, (S)—N-(2,2,2-trifluoro-1-(5-fluoro-1-neopentyl-6-(3-(trifluoromethyl)pyridin-2-yl)-1H-indol-3-yl)ethyl)cyclopropanesulfonamide], the pEC50 was 6.00 to 7.00.

`CC(C)(C)Cn1cc([C@H](NS(=O)(=O)C2CC2)C(F)(F)F)c2cc(F)c(-c3ncccc3C#N)cc21` [Compound 10, (S)—N-(1-(6-(3-cyanopyridin-2-yl)-5-fluoro-1-neopentyl-1H-indol-3-yl)-2,2,2-trifluoroethyl)cyclopropanesulfonamide]: the pEC50 is 6.00 to 7.00.

In the case of `CC(C)(C)Cn1cc([C@H](NS(=O)(=O)C2CC(F)(F)C2)C(F)F)c2ccc(-c3ccccc3C(F)(F)F)cc21` [Compound 11, (S)—N-(2,2-difluoro-1-(1-neopentyl-6-(2-(trifluoromethyl)phenyl)-1H-indol-3-yl)ethyl)-3,3-difluorocyclobutane-1-sulfonamide], the pEC50 is over 7.00.

With `Cc1ccccc1-c1cc2c(cc1F)c([C@H](NS(=O)(=O)C1CC1)C(F)F)cn2CC(C)(C)C` [Compound 12, (S)—N-(2,2-difluoro-1-(5-fluoro-1-neopentyl-6-(o-tolyl)-1H-indol-3yl)ethyl)cyclopropanesulfonamide], the pEC50 was over 7.00.

As for `CC(C)(C)Cn1cc([C@H](NS(=O)(=O)C2CC2)C(F)F)c2ccc(-c3cccnc3C(F)(F)F)cc21` [Compound 13, (S)—N-(2,2-difluoro-1-(1-neopentyl-6-(2-(trifluoromethyl)pyridin-3-yl)-1H-indol-3-yl)ethyl)cyclopropanesulfonamide], the pEC50 was over 7.00.

Source of the values: US20260285846A1, “REV-ERB AGONISTS FOR TH17-MEDIATED INFLAMMATORY DISORDERS” (UNIVERSITY OF FLORID RESEARCH FOUNDATION, iNCORPORATED, priority 2021, published 2026).
